Laboratory results from ChEMBL document CHEMBL1201862, “PubChem BioAssay data set” (2004).
The source made the active and inactive calls.

Assays:
[1] = HepG2 cell cytotoxicity, cytotoxicity control, set 4 (AID 504910); format: functional; settings: Mycobacterium tuberculosis
[2] = Vero cell cytotoxicity, dose response, cytotoxicity control for M. tuberculosis growth inhibitor project, Vero cells, purified and synthesized compounds, set 5 (AID 504909); format: functional; settings: Mycobacterium tuberculosis
[3] = tested on: Streptococcus sp. 'group A'; assay: growth inhibition of control SK(-) GAS strain, dose response, counter-screen for streptokinase expression inhibitor project, luminescence, kanamycin, BacTiterGlo, confirmation (AID 1900); format: functional, organism-based
[4] = tested on: INS1; assay: beta cell apoptosis inhibitors, cytokine rescue, dose response, luminescence, retest (AID 449756); format: functional, cell-based; settings: Rattus norvegicus;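 note: cell death triggered by IL-1 beta plus TNF-alpha plus IFN-gamma mixture; protective hits raise ATP signal compared with cytokine alone wells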
[5] = THP-1 cell cytotoxicity, cytotoxicity control, set 4 (AID 504911); format: functional; settings: Mycobacterium tuberculosis
[6] = tested on: Streptococcus; assay: Group A Streptococcus viability loss, dose response, counter-screen for streptokinase expression inhibitor project, luminescence, BacTiterGlo (AID 1915); format: functional, organism-based;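 note: potency for reduction of bacterial viability or growth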
[7] = molecular target: T1, Streptokinase A (Streptococcus pyogenes serotype M1, UniProt P10520); assay: S. pyogenes streptokinase expression inhibitors, potency, dose response, plasminogen activation absorbance, OD405 (AID 1914); format: functional, Streptococcus pyogenes M1 GAS;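 note: secreted streptokinase activity via plasminogen activation per viability signal from cell pellet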
T1 sequence (P10520 whole entry): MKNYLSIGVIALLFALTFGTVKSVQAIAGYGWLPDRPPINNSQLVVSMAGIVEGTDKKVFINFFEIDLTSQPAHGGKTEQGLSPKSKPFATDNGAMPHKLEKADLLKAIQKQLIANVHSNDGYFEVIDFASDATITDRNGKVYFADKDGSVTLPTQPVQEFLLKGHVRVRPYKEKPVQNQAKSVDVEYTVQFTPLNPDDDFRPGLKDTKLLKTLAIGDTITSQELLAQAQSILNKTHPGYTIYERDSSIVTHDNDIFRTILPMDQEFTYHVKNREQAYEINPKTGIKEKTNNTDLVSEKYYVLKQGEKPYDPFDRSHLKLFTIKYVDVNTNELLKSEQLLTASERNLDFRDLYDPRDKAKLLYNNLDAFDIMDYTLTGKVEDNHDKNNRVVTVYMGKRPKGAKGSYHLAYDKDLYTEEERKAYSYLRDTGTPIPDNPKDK

[8] = molecular target: LIM domain kinase 1 (Homo sapiens, UniProt P53667); assay: Navigating the Kinome. Panel member name: LIMK1; format: functional
[9] = molecular target: Tyrosine-protein kinase JAK2 (Homo sapiens, UniProt O60674); format: functional;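 note: JAK2 tested as one member of a kinase panel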
[10] = molecular target: Activated CDC42 kinase 1 (Homo sapiens, UniProt Q07912); assay: Navigating the Kinome. Panel member name: ACK1; format: functional
[11] = molecular target: cAMP-dependent protein kinase catalytic subunit alpha (Homo sapiens, UniProt P17612); format: functional
[12] = molecular target: Macrophage colony-stimulating factor 1 receptor (Homo sapiens, UniProt P07333); format: functional;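 note: value comes from the Navigating the Kinome screening panel, CSF1R member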
[13] = molecular target: Glycogen synthase kinase-3 beta (Homo sapiens, UniProt P49841); format: functional;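 note: value comes from a broad kinome profiling panel, with GSK3B as the panel member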
[14] = molecular target: Proto-oncogene tyrosine-protein kinase receptor Ret (Homo sapiens, UniProt P07949); format: functional;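 note: measured within a kinome-wide profiling panel, RET as the panel member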
[15] = molecular target: Cyclin-dependent kinase 7 (Homo sapiens, UniProt P50613); format: functional;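 note: value comes from a kinome-wide kinase profiling panel in which CDK7 is one member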
Cyclin-dependent kinase 7, sequence (P50613 whole entry): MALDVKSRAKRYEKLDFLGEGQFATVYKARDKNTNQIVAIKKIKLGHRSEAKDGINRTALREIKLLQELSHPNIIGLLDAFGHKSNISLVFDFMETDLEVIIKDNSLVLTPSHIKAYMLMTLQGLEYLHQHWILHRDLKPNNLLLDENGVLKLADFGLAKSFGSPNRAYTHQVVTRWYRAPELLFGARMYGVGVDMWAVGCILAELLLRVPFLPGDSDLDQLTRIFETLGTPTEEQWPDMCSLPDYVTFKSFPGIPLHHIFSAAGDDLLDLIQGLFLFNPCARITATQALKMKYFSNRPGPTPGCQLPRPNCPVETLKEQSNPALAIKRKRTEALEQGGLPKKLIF

[16] = molecular target: Aurora kinase B (Homo sapiens, UniProt Q96GD4); format: functional
[17] = molecular target: Macrophage-stimulating protein receptor (Homo sapiens, UniProt Q04912); assay: Navigating the Kinome. Panel member name: MST1R; format: functional
[18] = molecular target: BDNF/NT-3 growth factors receptor (Homo sapiens, UniProt Q16620); format: functional;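 note: NTRK2 measured as one member of a broad kinome-wide kinase profiling panel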
[19] = molecular target: Dual specificity mitogen-activated protein kinase kinase 2 (Homo sapiens, UniProt P36507); assay: Navigating the Kinome. Panel member name: MAP2K2; format: functional
[20] = molecular target: Mitogen-activated protein kinase kinase kinase kinase 4 (Homo sapiens, UniProt O95819); format: functional
[21] = molecular target: Fibroblast growth factor receptor 1 (Homo sapiens, UniProt P11362); format: functional
[22] = molecular target: Tyrosine-protein kinase Fyn (Homo sapiens, UniProt P06241); format: functional
[23] = molecular target: Casein kinase I isoform alpha (Homo sapiens, UniProt P48729); format: functional
[24] = molecular target: Serine/threonine-protein kinase D3 (Homo sapiens, UniProt O94806); format: functional;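 note: determined within a kinase panel screen, with PRKCN as the panel member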
[25] = molecular target: Vascular endothelial growth factor receptor 1 (Homo sapiens, UniProt P17948); format: functional;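 note: measured within a kinome-wide profiling panel, FLT1 as the panel member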
[26] = molecular target: Serine/threonine-protein kinase Chk1 (Homo sapiens, UniProt O14757); format: functional;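 note: measured as one member of a kinome-wide kinase profiling panel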
Serine/threonine-protein kinase Chk1, sequence (O14757 whole entry): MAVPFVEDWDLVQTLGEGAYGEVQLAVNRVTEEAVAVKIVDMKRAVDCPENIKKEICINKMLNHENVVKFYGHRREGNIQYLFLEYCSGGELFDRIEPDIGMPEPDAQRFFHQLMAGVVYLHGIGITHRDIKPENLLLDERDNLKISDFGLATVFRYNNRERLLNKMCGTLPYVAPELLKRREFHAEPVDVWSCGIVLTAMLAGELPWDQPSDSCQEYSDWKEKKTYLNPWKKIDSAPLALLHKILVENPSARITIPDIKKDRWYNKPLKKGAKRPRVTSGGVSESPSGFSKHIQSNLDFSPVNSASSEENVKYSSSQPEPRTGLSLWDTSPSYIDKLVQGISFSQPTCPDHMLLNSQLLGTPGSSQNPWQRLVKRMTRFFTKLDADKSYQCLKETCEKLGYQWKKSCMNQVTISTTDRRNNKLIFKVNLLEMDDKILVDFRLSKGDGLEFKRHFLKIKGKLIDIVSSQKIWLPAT

[27] = molecular target: Leucine-rich repeat serine/threonine-protein kinase 2 (Homo sapiens, UniProt Q5S007); format: functional;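 note: value from a broad kinome-wide panel profiling study in which LRRK2 was one of the kinases tested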
Leucine-rich repeat serine/threonine-protein kinase 2, sequence (Q5S007 whole entry): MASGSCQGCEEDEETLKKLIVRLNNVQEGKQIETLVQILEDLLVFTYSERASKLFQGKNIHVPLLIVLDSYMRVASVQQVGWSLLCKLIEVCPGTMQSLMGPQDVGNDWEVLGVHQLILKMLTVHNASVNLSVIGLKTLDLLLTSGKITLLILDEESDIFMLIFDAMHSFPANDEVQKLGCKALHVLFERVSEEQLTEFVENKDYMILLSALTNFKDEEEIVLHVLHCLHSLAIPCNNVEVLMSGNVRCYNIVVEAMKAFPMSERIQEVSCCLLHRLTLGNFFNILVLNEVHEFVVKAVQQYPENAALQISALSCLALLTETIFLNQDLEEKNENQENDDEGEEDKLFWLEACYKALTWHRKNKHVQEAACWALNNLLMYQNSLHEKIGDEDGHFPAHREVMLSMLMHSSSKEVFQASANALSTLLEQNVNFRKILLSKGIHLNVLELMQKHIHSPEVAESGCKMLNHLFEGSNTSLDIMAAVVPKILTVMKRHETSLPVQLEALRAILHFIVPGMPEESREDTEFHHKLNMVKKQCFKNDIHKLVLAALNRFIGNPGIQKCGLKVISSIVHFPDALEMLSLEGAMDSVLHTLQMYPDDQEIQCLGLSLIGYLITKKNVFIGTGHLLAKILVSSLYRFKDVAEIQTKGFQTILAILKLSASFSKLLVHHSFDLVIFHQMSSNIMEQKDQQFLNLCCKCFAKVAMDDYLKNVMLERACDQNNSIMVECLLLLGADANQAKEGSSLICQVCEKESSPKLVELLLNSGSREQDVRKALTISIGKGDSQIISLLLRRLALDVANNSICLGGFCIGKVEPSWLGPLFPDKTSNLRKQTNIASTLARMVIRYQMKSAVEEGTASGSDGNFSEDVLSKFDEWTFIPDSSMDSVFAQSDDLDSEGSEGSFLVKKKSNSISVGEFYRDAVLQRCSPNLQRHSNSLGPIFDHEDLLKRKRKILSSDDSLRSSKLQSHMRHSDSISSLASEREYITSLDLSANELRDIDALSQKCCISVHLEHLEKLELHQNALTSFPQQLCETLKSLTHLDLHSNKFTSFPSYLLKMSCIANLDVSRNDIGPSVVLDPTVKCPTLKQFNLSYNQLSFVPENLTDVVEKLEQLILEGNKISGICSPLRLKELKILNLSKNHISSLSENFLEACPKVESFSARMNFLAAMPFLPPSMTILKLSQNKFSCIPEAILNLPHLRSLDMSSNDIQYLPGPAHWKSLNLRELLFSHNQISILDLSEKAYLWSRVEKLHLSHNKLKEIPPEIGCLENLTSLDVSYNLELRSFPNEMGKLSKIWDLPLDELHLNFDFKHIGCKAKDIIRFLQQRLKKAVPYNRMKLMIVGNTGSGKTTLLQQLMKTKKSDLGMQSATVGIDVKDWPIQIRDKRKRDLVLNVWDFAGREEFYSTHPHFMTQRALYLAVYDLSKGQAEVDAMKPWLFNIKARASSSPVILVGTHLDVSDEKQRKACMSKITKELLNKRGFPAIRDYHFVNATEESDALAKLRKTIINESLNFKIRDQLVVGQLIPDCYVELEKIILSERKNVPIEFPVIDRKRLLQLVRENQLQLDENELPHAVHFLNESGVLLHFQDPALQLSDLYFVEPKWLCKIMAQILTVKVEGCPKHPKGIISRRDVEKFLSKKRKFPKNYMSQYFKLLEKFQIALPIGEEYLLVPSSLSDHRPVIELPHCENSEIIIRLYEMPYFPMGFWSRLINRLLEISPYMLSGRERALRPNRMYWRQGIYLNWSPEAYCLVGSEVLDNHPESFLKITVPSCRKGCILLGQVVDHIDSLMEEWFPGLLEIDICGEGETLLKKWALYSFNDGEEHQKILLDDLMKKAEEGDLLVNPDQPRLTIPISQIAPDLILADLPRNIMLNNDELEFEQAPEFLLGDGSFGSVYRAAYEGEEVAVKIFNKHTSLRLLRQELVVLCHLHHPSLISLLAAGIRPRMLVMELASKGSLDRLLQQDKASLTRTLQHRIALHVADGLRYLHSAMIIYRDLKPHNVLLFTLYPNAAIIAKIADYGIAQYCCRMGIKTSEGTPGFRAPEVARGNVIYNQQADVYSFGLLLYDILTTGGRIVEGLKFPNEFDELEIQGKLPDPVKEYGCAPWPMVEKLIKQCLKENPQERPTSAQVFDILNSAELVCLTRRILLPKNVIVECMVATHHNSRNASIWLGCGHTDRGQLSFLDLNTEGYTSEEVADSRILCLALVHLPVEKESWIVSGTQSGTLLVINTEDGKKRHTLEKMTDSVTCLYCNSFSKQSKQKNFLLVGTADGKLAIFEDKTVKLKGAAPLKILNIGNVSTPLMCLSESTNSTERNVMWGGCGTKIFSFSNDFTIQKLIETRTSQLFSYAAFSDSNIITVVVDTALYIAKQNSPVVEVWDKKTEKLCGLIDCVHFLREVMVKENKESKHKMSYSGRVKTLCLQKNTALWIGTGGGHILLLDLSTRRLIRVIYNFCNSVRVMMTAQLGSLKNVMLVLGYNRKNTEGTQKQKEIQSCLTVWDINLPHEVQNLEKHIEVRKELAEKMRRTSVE

[28] = molecular target: Serine/threonine-protein kinase PAK 4 (Homo sapiens, UniProt O96013); format: functional;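 note: value obtained within a kinome profiling panel in which PAK4 was one of the panel members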
[29] = molecular target: Aurora kinase A (Homo sapiens, UniProt O14965); format: functional;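 note: value from the Navigating the Kinome kinase panel profiling, panel entry STK6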
[30] = molecular target: Cyclin-dependent kinase 5 (Homo sapiens, UniProt Q00535); format: functional;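 note: CDK5 measured as one member of a kinase profiling panel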
[31] = molecular target: Dual specificity tyrosine-phosphorylation-regulated kinase 1B (Homo sapiens, UniProt Q9Y463); assay: Navigating the Kinome. Panel member name: DYRK1B; format: functional
[32] = molecular target: Dual specificity protein kinase CLK2 (Homo sapiens, UniProt P49760); format: functional
[33] = molecular target: Dual specificity protein kinase CLK4 (Homo sapiens, UniProt Q9HAZ1); format: functional
Dual specificity protein kinase CLK4, sequence (Q9HAZ1 whole entry): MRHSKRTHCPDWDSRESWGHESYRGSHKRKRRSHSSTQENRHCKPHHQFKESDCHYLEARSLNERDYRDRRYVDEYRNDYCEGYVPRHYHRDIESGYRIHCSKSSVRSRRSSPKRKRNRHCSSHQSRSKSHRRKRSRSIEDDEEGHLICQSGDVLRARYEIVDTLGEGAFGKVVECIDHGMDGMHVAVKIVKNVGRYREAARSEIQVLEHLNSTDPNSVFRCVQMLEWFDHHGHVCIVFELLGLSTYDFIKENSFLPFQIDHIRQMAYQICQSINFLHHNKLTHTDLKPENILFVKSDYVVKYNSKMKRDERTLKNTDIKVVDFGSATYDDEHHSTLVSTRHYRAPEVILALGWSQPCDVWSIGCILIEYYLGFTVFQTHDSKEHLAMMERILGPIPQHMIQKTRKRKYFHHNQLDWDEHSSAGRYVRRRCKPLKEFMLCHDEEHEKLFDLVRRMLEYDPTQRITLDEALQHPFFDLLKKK

[34] = molecular target: Mitogen-activated protein kinase 8 (Homo sapiens, UniProt P45983); format: functional;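 note: value comes from one member of a kinome-wide kinase profiling panel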
[35] = molecular target: Serine/threonine-protein kinase pim-1 (Homo sapiens, UniProt P11309); format: functional
[36] = molecular target: ALK tyrosine kinase receptor (Homo sapiens, UniProt Q9UM73); format: functional;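 note: ALK tested as one member of a kinase panel screen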
[37] = molecular target: Serine/threonine-protein kinase TBK1 (Homo sapiens, UniProt Q9UHD2); assay: Navigating the Kinome. Panel member name: TBK1; format: functional
[38] = molecular target: Tyrosine-protein kinase Lck (Homo sapiens, UniProt P06239); format: functional;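 note: lck was assayed as one member of a kinase panel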
[39] = molecular target: Tyrosine-protein kinase receptor TYRO3 (Homo sapiens, UniProt Q06418); format: functional;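 note: TYRO3 value obtained as one member of a kinome-wide profiling panel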
[40] = molecular target: Protein kinase C theta type (Homo sapiens, UniProt Q04759); assay: Navigating the Kinome. Panel member name: PRKCQ; format: functional
[41] = molecular target: Serine/threonine-protein kinase TAO1 (Homo sapiens, UniProt Q7L7X3); format: functional
[42] = molecular target: Platelet-derived growth factor receptor alpha (Homo sapiens, UniProt P16234); assay: Navigating the Kinome. Panel member name: PDGFRA; format: functional
[43] = molecular target: Glycogen synthase kinase-3 alpha (Homo sapiens, UniProt P49840); format: functional;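 note: GSK3A result taken from a broad kinome-wide kinase panel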
[44] = molecular target: Dual specificity mitogen-activated protein kinase kinase 1 (Homo sapiens, UniProt Q02750); assay: Navigating the Kinome. Panel member name: MAP2K1; format: functional
[45] = molecular target: Cyclin-dependent kinase 8 (Homo sapiens, UniProt P49336); assay: Navigating the Kinome. Panel member name: CDK8; format: functional
[46] = molecular target: Calcium/calmodulin-dependent protein kinase type II subunit alpha (Homo sapiens, UniProt Q9UQM7); assay: Navigating the Kinome. Panel member name: CAMK2A; format: functional
[47] = molecular target: Cyclin-dependent kinase 9 (Homo sapiens, UniProt P50750); format: functional;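 note: value from the CDK9 entry of a kinome-spanning kinase panel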
[48] = molecular target: Tyrosine-protein kinase ABL1 (Homo sapiens, UniProt P00519); format: functional
[49] = molecular target: Rho-associated protein kinase 1 (Homo sapiens, UniProt Q13464); format: functional;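 note: measured within a broad kinome-wide panel profiling many kinases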
[50] = molecular target: cAMP-dependent protein kinase catalytic subunit PRKX (Homo sapiens, UniProt P51817); format: functional
[51] = molecular target: Mitogen-activated protein kinase 9 (Homo sapiens, UniProt P45984); format: functional;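 note: value from a kinome panel profiling assay, MAPK9 panel entry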
[52] = molecular target: Vascular endothelial growth factor receptor 2 (Homo sapiens, UniProt P35968); format: functional
[53] = molecular target: 5'-AMP-activated protein kinase catalytic subunit alpha-1 (Homo sapiens, UniProt Q13131); format: functional
[54] = molecular target: Mitogen-activated protein kinase kinase kinase kinase 2 (Homo sapiens, UniProt Q12851); format: functional;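 note: measured as one member of a kinome-wide kinase panel, with MAP4K2 as the panel entry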
[55] = molecular target: Death-associated protein kinase 3 (Homo sapiens, UniProt O43293); format: functional;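 note: measured as one member of a kinome-wide profiling panel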
[56] = molecular target: Dual specificity tyrosine-phosphorylation-regulated kinase 1A (Homo sapiens, UniProt Q13627); format: functional;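 note: measured against DYRK1A as one member of a broad kinome profiling panel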
[57] = molecular target: Tyrosine-protein kinase JAK3 (Homo sapiens, UniProt P52333); format: functional
Tyrosine-protein kinase JAK3, sequence (P52333 whole entry): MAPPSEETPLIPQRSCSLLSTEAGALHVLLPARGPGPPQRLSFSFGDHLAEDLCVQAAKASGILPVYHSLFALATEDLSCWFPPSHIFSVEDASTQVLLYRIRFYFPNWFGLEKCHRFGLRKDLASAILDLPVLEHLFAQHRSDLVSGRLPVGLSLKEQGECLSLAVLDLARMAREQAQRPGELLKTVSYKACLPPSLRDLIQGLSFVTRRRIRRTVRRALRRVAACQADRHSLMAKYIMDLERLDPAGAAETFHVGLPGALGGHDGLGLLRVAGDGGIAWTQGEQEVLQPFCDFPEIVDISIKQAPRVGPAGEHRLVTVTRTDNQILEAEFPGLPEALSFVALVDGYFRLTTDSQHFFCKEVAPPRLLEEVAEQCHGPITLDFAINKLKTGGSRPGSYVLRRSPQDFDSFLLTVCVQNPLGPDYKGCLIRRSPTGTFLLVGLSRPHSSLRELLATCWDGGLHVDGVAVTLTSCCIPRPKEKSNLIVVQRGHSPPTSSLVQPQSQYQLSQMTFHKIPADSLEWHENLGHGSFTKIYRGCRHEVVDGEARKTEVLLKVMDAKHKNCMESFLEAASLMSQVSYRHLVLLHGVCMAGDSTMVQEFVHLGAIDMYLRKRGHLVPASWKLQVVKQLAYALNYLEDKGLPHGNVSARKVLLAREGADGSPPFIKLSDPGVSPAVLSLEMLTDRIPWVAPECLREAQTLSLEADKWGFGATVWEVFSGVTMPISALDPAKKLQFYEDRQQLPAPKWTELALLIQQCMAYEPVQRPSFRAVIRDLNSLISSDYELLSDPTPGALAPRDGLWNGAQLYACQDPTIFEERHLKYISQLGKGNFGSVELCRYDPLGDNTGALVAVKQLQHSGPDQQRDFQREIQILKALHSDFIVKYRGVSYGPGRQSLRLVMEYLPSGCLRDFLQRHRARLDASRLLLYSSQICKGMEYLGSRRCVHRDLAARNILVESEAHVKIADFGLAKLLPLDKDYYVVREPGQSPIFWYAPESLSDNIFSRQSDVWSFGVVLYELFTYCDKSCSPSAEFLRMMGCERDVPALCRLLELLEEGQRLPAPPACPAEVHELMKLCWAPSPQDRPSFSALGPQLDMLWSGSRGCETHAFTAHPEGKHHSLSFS

[58] = molecular target: Leukocyte tyrosine kinase receptor (Homo sapiens, UniProt P29376); assay: Navigating the Kinome. Panel member name: LTK; format: functional
[59] = molecular target: Insulin-like growth factor 1 receptor (Homo sapiens, UniProt P08069); assay: Navigating the Kinome. Panel member name: IGF1R; format: functional
[60] = molecular target: Focal adhesion kinase 1 (Homo sapiens, UniProt Q05397); format: functional;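 note: measured as one member of a kinome panel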
[61] = molecular target: Inhibitor of nuclear factor kappa-B kinase subunit epsilon (Homo sapiens, UniProt Q14164); assay: Navigating the Kinome. Panel member name: IKBKE; format: functional
[62] = molecular target: Activin receptor type-1 (Homo sapiens, UniProt Q04771); assay: Navigating the Kinome. Panel member name: ACVR1; format: functional

CC(C)/N=c1\cc2n(-c3ccc(Cl)cc3)c3ccccc3nc-2cc1Nc1ccc(Cl)cc1 [CLOFAZIMINE]
active: CC50 [1] 4.7 µM | CC50 [2] 10.2 µM | EC50 [3] 1.86 µM | AC50 [4] 2.06 µM | CC50 [5] 2.2 µM | EC50 [6] 36.9 µM | EC50 [7] 2.28 µM

Cc1n[nH]c2ccc(-c3cccnc3)cc12
active: Ki [8] 79.4 µM | Ki [9] 7.94 µM | Ki [10] 50.1 µM | Ki [11] 2.51 µM | Ki [12] 31.6 µM | Ki [13] 3.98 µM | Ki [14] 39.8 µM | Ki [15] 7.94 µM | Ki [16] 10 µM | Ki [17] 12.6 µM | Ki [18] 79.4 µM | Ki [19] 10 µM | Ki [20] 2.51 µM | Ki [21] 50.1 µM | Ki [22] 79.4 µM | Ki [23] 7.94 µM | Ki [24] 2.51 µM | Ki [25] 31.6 µM | Ki [26] 63.1 µM | Ki [27] 0.398 µM | Ki [28] 79.4 µM | Ki [29] 15.8 µM | Ki [30] 0.126 µM | Ki [31] 0.0126 µM | Ki [32] 0.0631 µM | Ki [33] 0.002 µM | Ki [34] 5.01 µM | Ki [35] 7.94 µM | Ki [36] 12.6 µM | Ki [37] 39.8 µM | Ki [38] 63.1 µM | Ki [39] 79.4 µM | Ki [40] 0.126 µM | Ki [41] 50.1 µM | Ki [42] 31.6 µM | Ki [43] 3.98 µM | Ki [44] 10 µM | Ki [45] 0.0251 µM | Ki [46] 12.6 µM | Ki [47] 0.794 µM | Ki [48] 25.1 µM | Ki [49] 0.251 µM | Ki [50] 6.31 µM | Ki [51] 20 µM | Ki [52] 6.31 µM | Ki [53] 20 µM | Ki [54] 3.98 µM | Ki [55] 2 µM | Ki [56] 0.0398 µM | Ki [57] 63.1 µM | Ki [58] 3.16 µM | Ki [59] 39.8 µM | Ki [60] 25.1 µM | Ki [61] 20 µM | Ki [62] 3.98 µM
